Data on four molecules can be found in patent EP2042491A1, “Pyridazines as fungicides” (Bayer CropScience AG, priority 2007, dated 2009).

SMILES strings stand for the structures. Like-named read-outs stand apart in the source and are kept apart here.

For one data set, the system named is Septoria tritici. As to the kind of experiment: Septoria tritici test (wheat) / protective. The settings on record: 1000 ppm active compound; protective spray on young wheat plants; evaluated 21 days after inoculation; 0% = as control, 100% = no infection. It counts as in vivo. An excerpt: (§1) Zur Herstellung einer zweckmäßigen Wirkstoffzubereitung vermischt man 1 Gewichtsteil Wirkstoff mit den angegebenen Mengen Lösungsmittel und Emulgator und verdünnt das Konzentrat mit Wasser auf die gewünschte Konzentration.
Zur Prüfung auf protektive Wirksamkeit werden junge Pflanzen mit der Wirkstoffzubereitung in der angegebenen Aufwandmenge besprüht. Nach Antrocknen des Spritzbelages werden die Pflanzen mit einer Sporensuspension von Septoria tritici besprüht. Die Pflanzen verbleiben 48 Stunden bei 20 °C und 100 % relativer Luftfeuchtigkeit in einer Inkubationskabine.
Die Pflanzen werden in einem Gewächshaus bei einer Temperatur von ca. 15 °C und einer relativen Luftfeuchtigkeit von 80 % aufgestellt.
21 Tage nach der Inokulation erfolgt die Auswertung. Dabei bedeutet 0% ein Wirkungsgrad, der demjenigen der Kontrolle entspricht, während ein Wirkungsgrad von 100% bedeutet, daß kein Befall beobachtet wird.

In the next data set the test system is Alternaria solani. In kind it is in vivo. The settings on record: 168 h, 500 ppm. Here is the method:
as §1
Zur Prüfung auf protektive Wirksamkeit bespritzt man junge Tomatenpflanzen mit der Wirkstoffzubereitung in der angegebenen Aufwandmenge. 1 Tag nach der Behandlung werden die Pflanzen mit einer Sporensuspension von Alternaria solani inokuliert und stehen dann 24h bei 100% rel. Feuchte und 20°C. Anschließend stehen die Pflanzen bei 96% rel. Luftfeuchtigkeit und einer Temperatur von 20 C.
7 Tage nach der Inokulation erfolgt die Auswertung. Dabei bedeutet 0 % ein Wirkungsgrad, der demjenigen der Kontrolle entspricht, während ein Wirkungsgrad von 100 % bedeutet, dass kein Befall beobachtet wird.

The conditions of data set [1]: HPLC on reversed-phase C18, 40°C, 0.1% aqueous formic acid / acetonitrile, linear gradient 10-95% acetonitrile.
A further data set has as its system Pyricularia oryzae. In kind it is in vivo. The settings on record: 500 ppm active compound; protective spray on young rice plants; evaluated 7 days after inoculation; 0% = as control, 100% = no infection.
A further data set deals with Venturia inaequalis. As to the kind of experiment: Venturia inaequalis test (apple) / protective. In kind it is in vivo. The settings on record: 100 ppm active compound; protective spray on young apple plants; evaluated 10 days after inoculation; 0% = as control, 100% = no infection.
From the text: as §1
Zur Prüfung auf protektive Wirksamkeit werden junge Pflanzen mit der Wirkstoffzubereitung in der angegebenen Aufwandmenge besprüht. Nach Antrocknen des Spritzbelages werden die Pflanzen mit einer wäßrigen Konidiensuspension des Apfelschorferregers Venturia inaequalis inokuliert und verbleiben dann 1 Tag bei ca. 20 °C und 100% relativer Luftfeuchtigkeit in einer Inkubations-kabine.
Die Pflanzen werden dann im Gewächshaus bei ca. 21 °C und einer relativen Luftfeuchtigkeit von ca. 90% aufgestellt.
(§2) 10 Tage nach der Inokulation erfolgt die Auswertung. Dabei bedeutet 0% ein Wirkungsgrad, der demjenigen der Kontrolle entspricht, während ein Wirkungsgrad von 100% bedeutet, daß kein Befall beobachtet wird.

A further data set relates to Botrytis cinerea. As to the kind of experiment: Botrytis cinerea test (bean) / protective. The settings on record: 100 ppm active compound; protective spray on young bean plants; lesion size evaluated 2 days after inoculation; 0% = as control, 100% = no infection. It counts as in vivo.
From the text: as §1
Zur Prüfung auf protektive Wirksamkeit werden junge Pflanzen mit der Wirkstoffzubereitung in der angegebenen Aufwandmenge besprüht. Nach Antrocknen des Spritzbelages werden auf jedes Blatt 2 kleine mit Botrytis cinerea bewachsene Agarstückchen aufgelegt. Die inokulierten Pflanzen werden in einer abgedunkelten Kammer bei ca. 20 °C und 100% relativer Luftfeuchtigkeit aufgestellt.
2 Tage nach der Inokulation wird die Größe der Befallsflecken auf den Blättern ausgewertet. Dabei bedeutet 0% ein Wirkungsgrad, der demjenigen der Kontrolle entspricht, während ein Wirkungsgrad von 100% bedeutet, daß kein Befall beobachtet wird.

The test system of a further data set is Leptosphaeria nodorum. As to the kind of experiment: Leptosphaeria nodorum test (wheat) / protective. It counts as in vivo. The settings on record: 1000 ppm active compound; protective spray on young wheat plants; evaluated 10 days after inoculation; 0% = as control, 100% = no infection.
From the text: as §1
Zur Prüfung auf protektive Wirksamkeit werden junge Pflanzen mit der Wirkstoffzubereitung in der angegebenen Aufwandmenge besprüht. Nach Antrocknen des Spritzbelages werden die Pflanzen mit einer Sporensuspension von Leptosphaeria nodor um besprüht. Die Pflanzen verbleiben 48 Stunden bei 20 °C und 100 % relativer Luftfeuchtigkeit in einer Inkubationskabine.
Die Pflanzen werden in einem Gewächshaus bei einer Temperatur von ca. 20 °C und einer relativen Luftfeuchtigkeit von 80 % aufgestellt.
as §2

A further data set concerns Sphaerotheca fuliginea. As to the kind of experiment: Sphaerotheca fuliginea test (cucumber) / protective. The settings on record: 500 ppm active compound; protective spray on young cucumber plants; evaluated 7 days after inoculation; 0% = as control, 100% = no infection. It counts as in vivo.
From the text: as §1
Zur Prüfung auf protektive Wirksamkeit bespritzt man junge Gurkenpflanzen mit der Wirkstoffzubereitung in der angegebenen Aufwandmenge. 1 Tag nach der Behandlung werden die Pflanzen mit einer Sporensuspension von Sphaerotheca fuliginea inokuliert. Anschließend werden die Pflanzen in einem Gewächshaus bei 70 % relativer Luftfeuchtigkeit und einer Temperatur von 23 °C aufgestellt.
7 Tage nach der Inokulation erfolgt die Auswertung. Dabei bedeutet 0 % ein Wirkungsgrad, der demjenigen der Kontrolle entspricht, während ein Wirkungsgrad von 100 % bedeutet, daß kein Befall beobachtet wird.

For the molecule `Cc1nnc(Cl)c(-c2c(F)cccc2Cl)c1N1CCC(C)CC1` [1-93, 3-Chlor-4-(2-chlor-6-fluorphenyl)-6-methyl-5-(4-methylpiperidin-1-yl)pyridazin], the Wirkungsgrad in the data set on Septoria tritici, with Alternaria solani, in the data set with Pyricularia oryzae, with Venturia inaequalis, in the data set with Botrytis cinerea and in the data set on Leptosphaeria nodorum was no less than 70% throughout. The “logP^a)” value in [1] (Table 1) is given as 4,11. Also, in the data set “physchem”, the chromatographic logP (commonly a lipophilicity value derived from retention on a column) came to 4.11.
On to `Cc1nnc(Cl)c(-c2c(F)cccc2Cl)c1N[C@H](C)C(C)C` [1-100], for which the Wirkungsgrad in the data set with Sphaerotheca fuliginea, in the data set with Alternaria solani and in the data set on Pyricularia oryzae was no less than 70% in each case. In addition, the chromatographic logP in “physchem” is 3.22.
In the case of `Cc1nnc(Cl)c(-c2c(F)cccc2Cl)c1OC1CCCCC1` [2-59], the Wirkungsgrad in the data set on Sphaerotheca fuliginea and in the data set on Pyricularia oryzae was no less than 70% each time. Also, the chromatographic logP in the data set “physchem” was 4.25.
`Cc1nnc(Cl)c(-c2c(F)cccc2Cl)c1Oc1ccc(Cl)cc1` [2-61, 3-Chlor-4-(2-chlor-6-fluorphenyl)-5-(4-chlorphenoxy)-6-methylpyridazin]: the Wirkungsgrad with Septoria tritici, with Venturia inaequalis and with Leptosphaeria nodorum was no less than 70% each time. The “logP^a)” value in data set [1] (Table 2) is reported as 4,13.
